Data on 16 molecules can be found in PubChem BioAssay AID248 (DTP/NCI, 2004).

For the assay, the system named is L1210 leukemia ip in BDF1 mice, survival T/C. Nature of the assay: NCI In Vivo Anticancer Drug Screen. Data for tumor model L1210 Leukemia (intraperitoneal) in B6D2F1 (BDF1) mice. To be noted: endpoint: mean survival time, higher = longer survival. In short, it runs like this:
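Each compound was tested against a transplantable tumor grown in mice. The endpoint was survival, with treated animals benchmarked against vehicle controls as a simple ratio.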

Setting [1] is: dose: 100.0 mg/kg/injection, schedule: Q04DX003 (ip), vehicle: saline with Tween-80.
The mark [2] stands for this setting: dose: 200.0 mg/kg/injection, schedule: Q04DX003 (ip), vehicle: saline with Tween-80.
The mark [3] stands for this setting: dose: 100.0 mg/kg/injection, schedule: Q01DX009 (ip), vehicle: Klucel (hydroxypropylcellulose) (HPC).
Setting [4] is: dose: 200.0 mg/kg/injection, schedule: Q01DX009 (ip), vehicle: Klucel (hydroxypropylcellulose) (HPC).
Where [5] appears, read: dose: 400.0 mg/kg/injection, schedule: Q01DX009 (ip), vehicle: Klucel (hydroxypropylcellulose) (HPC).
[6] abbreviates: dose: 100.0 mg/kg/injection, schedule: Q04DX003 (ip), vehicle: saline.
The mark [7] stands for this setting: dose: 100.0 mg/kg/injection, schedule: Q04DX003 (ip), vehicle: Klucel (hydroxypropylcellulose) (HPC).
Where [8] appears, read: dose: 200.0 mg/kg/injection, schedule: Q04DX003 (ip), vehicle: Klucel (hydroxypropylcellulose) (HPC).
Where [9] appears, read: dose: 400.0 mg/kg/injection, schedule: Q04DX003 (ip), vehicle: Klucel (hydroxypropylcellulose) (HPC).

Inconclusive results and toxic doses are left out. Square brackets hold non-standard residues; d marks the D form. Peptide text beside a SMILES is read from it. ξ: configuration not given here. ξI = CCC(C)C(N)C(=O)O

Turning to `O=C1CN=C(c2ccccn2)c2cc(Cl)ccc2N1`, the T/C was 98 % of control (dose: 50.0 mg/kg/injection, schedule: Q01DX009 (ip), vehicle: water); 97 % of control (dose: 100.0 mg/kg/injection, schedule: Q01DX009 (ip), vehicle: water); 104 % of control (dose: 200.0 mg/kg/injection, schedule: Q01DX009 (ip), vehicle: water); 99 % of control (dose: 200.0 mg/kg/injection, schedule: Q04DX003 (ip), vehicle: none); 100 % of control (dose: 200.0 mg/kg/injection, schedule: Q04DX003 (ip), vehicle: water); 97 % of control (dose: 267.0 mg/kg/injection, schedule: Q01DX009 (ip), vehicle: saline). In addition, the T/C is, setting by setting: (dose: 400.0 mg/kg/injection, schedule: Q01DX009 (ip), vehicle: saline) 110 % of control; (dose: 400.0 mg/kg/injection, schedule: Q01DX009 (ip), vehicle: water) 198 % of control; (dose: 400.0 mg/kg/injection, schedule: Q04DX003 (ip), vehicle: none) 101 % of control; (dose: 400.0 mg/kg/injection, schedule: Q04DX003 (ip), vehicle: water) 102 % of control; (dose: 600.0 mg/kg/injection, schedule: Q04DX003 (ip), vehicle: none) 101 % of control; (dose: 600.0 mg/kg/injection, schedule: Q04DX003 (ip), vehicle: water) 102 % of control.
As for `COc1cc2c3c(c1)/C(=N\N)CCN3CCC2`, the T/C runs as follows: (dose: 12.5 mg/kg/injection, schedule: Q01DX009 (ip), vehicle: saline with Tween-80) 90 % of control; (dose: 25.0 mg/kg/injection, schedule: Q01DX009 (ip), vehicle: saline with Tween-80) 94 % of control; (dose: 50.0 mg/kg/injection, schedule: Q01DX009 (ip), vehicle: saline with Tween-80) 92 % of control; under setting [1], 92 % of control; (dose: 200.0 mg/kg/injection, schedule: Q01DX009 (ip), vehicle: saline with Tween-80) 99 % of control; under setting [2], 103 % of control.
Take `COc1ccccc1C(=O)N/N=C/c1ccncc1`: the T/C is 94 % of control under setting [3], 94 % of control under setting [4] and 97 % of control under setting [5].
As for `Oc1ccccc1CNc1ccc(Br)cc1`, the T/C is 95 % of control (dose: 100.0 mg/kg/injection, schedule: Q04DX003 (ip), vehicle: gum acacia); 95 % of control (dose: 200.0 mg/kg/injection, schedule: Q04DX003 (ip), vehicle: gum acacia); 93 % of control (dose: 400.0 mg/kg/injection, schedule: Q04DX003 (ip), vehicle: gum acacia).
Consider `COc1ccc(CCNC(=O)C2(C(C)C)OC3(O)C4CCCN4C(=O)C(C(C)C)N3C2=O)cc1OC` (stereo not drawn), for which the T/C is 98 % of control (dose: 12.5 mg/kg/injection, schedule: Q04DX003 (ip), vehicle: alcohol); 97 % of control (dose: 25.0 mg/kg/injection, schedule: Q04DX003 (ip), vehicle: alcohol); 98 % of control (dose: 25.0 mg/kg/injection, schedule: Q04DX003 (ip), vehicle: saline with Tween-80); 104 % of control (dose: 50.0 mg/kg/injection, schedule: Q04DX003 (ip), vehicle: alcohol); 114 % of control (dose: 50.0 mg/kg/injection, schedule: Q04DX003 (ip), vehicle: saline with Tween-80); 101 % of control (dose: 100.0 mg/kg/injection, schedule: Q04DX003 (ip), vehicle: alcohol). Moreover, the T/C under setting [1] is 98 % of control and the T/C under setting [2] is 111 % of control.
Take `CCCP(=S)(CCC)Oc1ccc([N+](=O)[O-])cc1`: the T/C reads like this: (dose: 75.0 mg/kg/injection, schedule: Q01DX001 (ip), vehicle: saline) 95 % of control; (dose: 150.0 mg/kg/injection, schedule: Q01DX001 (ip), vehicle: saline) 98 % of control.
On to `CCC(C)C(NC(=O)CN)C(=O)O` (stereo not drawn) (H-Gly-[ξI]-OH), for which the T/C is 97 % of control (dose: 100.0 mg/kg/injection, schedule: Q04DX002 (ip), vehicle: saline with Tween-80); 98 % of control under setting [6]; 102 % of control (dose: 200.0 mg/kg/injection, schedule: Q04DX002 (ip), vehicle: saline with Tween-80); 98 % of control (dose: 200.0 mg/kg/injection, schedule: Q04DX003 (ip), vehicle: saline); 97 % of control (dose: 400.0 mg/kg/injection, schedule: Q04DX002 (ip), vehicle: saline with Tween-80); 91 % of control (dose: 400.0 mg/kg/injection, schedule: Q04DX003 (ip), vehicle: saline).
Consider `CCCCCCCC(=O)Oc1ccc(C)cc1`, for which the T/C runs as follows: (dose: 100.0 mg/kg/injection, schedule: Q01DX Z (ip), vehicle: carboxymethylcellulose (CMC)) 103 % of control; (dose: 150.0 mg/kg/injection, schedule: Q01DX Z (ip), vehicle: carboxymethylcellulose (CMC)) 106 % of control; (dose: 225.0 mg/kg/injection, schedule: Q01DX Z (ip), vehicle: carboxymethylcellulose (CMC)) 97 % of control.
Take `Fc1ccc2[nH]c3c(c2c1)CP(c1ccccc1)CC3` (stereo not drawn): the T/C under setting [7] is 100 % of control, the T/C under setting [8] was 96 % of control and the T/C under setting [9] is 105 % of control.
Turning to `C(=Nc1ccccc1)c1ccc[nH]1`, the T/C was 100 % of control under setting [1]; 93 % of control under setting [2]; 96 % of control (dose: 400.0 mg/kg/injection, schedule: Q04DX003 (ip), vehicle: saline with Tween-80).
Regarding `COc1ccc(CCn2ccc(C(=O)O)cc2=O)cc1OC`, the T/C is 89 % of control under setting [3]; 91 % of control under setting [7]; 101 % of control under setting [4]; 94 % of control under setting [8]; 99 % of control under setting [5]; 105 % of control under setting [9].
For `N#[N+]c1ccc2[nH]c3ccccc3c(=O)c2c1`, the T/C reads like this: (dose: 5.0 mg/kg/injection, schedule: Q01DX009 (ip), vehicle: saline) 105 % of control; (dose: 10.0 mg/kg/injection, schedule: Q01DX001 (ip), vehicle: saline) 101 % of control; (dose: 10.0 mg/kg/injection, schedule: Q01DX009 (ip), vehicle: saline) 102 % of control; (dose: 10.0 mg/kg/injection, schedule: Q04DX003 (ip), vehicle: saline) 94 % of control; (dose: 20.0 mg/kg/injection, schedule: Q01DX001 (ip), vehicle: saline) 101 % of control; (dose: 20.0 mg/kg/injection, schedule: Q01DX009 (ip), vehicle: saline) 94 % of control. Further, the T/C by setting is: (dose: 20.0 mg/kg/injection, schedule: Q04DX003 (ip), vehicle: saline) 97 % of control; (dose: 40.0 mg/kg/injection, schedule: Q01DX001 (ip), vehicle: saline) 104 % of control; (dose: 40.0 mg/kg/injection, schedule: Q04DX003 (ip), vehicle: saline) 97 % of control.
Turning to `CN(C)CCc1ccccc1OC1CCCC1`, the T/C (dose: 75.0 mg/kg/injection, schedule: Q01DX001 (ip), vehicle: other) is 101 % of control; the T/C (dose: 150.0 mg/kg/injection, schedule: Q01DX001 (ip), vehicle: other) is 102 % of control; the T/C (dose: 300.0 mg/kg/injection, schedule: Q01DX001 (ip), vehicle: other) is 101 % of control.
Turning to `CC(C)(C)C1=CC(=O)C(C#N)=C(C#N)C1=O`, the T/C under setting [6] was 96 % of control.
Consider `CC(=O)CC(C)=NCCN=C(C)CC(C)=O.[Ni]`, for which the T/C is 103 % of control (dose: 1.56 mg/kg/injection, schedule: Q01DX009 (ip), vehicle: gum acacia); 104 % of control (dose: 3.12 mg/kg/injection, schedule: Q01DX009 (ip), vehicle: gum acacia); 100 % of control (dose: 6.25 mg/kg/injection, schedule: Q01DX009 (ip), vehicle: gum acacia); 99 % of control (dose: 12.5 mg/kg/injection, schedule: Q01DX009 (ip), vehicle: gum acacia); 117 % of control (dose: 12.5 mg/kg/injection, schedule: Q04DX003 (ip), vehicle: gum acacia); 118 % of control (dose: 25.0 mg/kg/injection, schedule: Q04DX003 (ip), vehicle: gum acacia). For the same molecule, the T/C (dose: 50.0 mg/kg/injection, schedule: Q04DX003 (ip), vehicle: gum acacia) was 103 % of control.
Take `O=C1NCCCN1`: the T/C by setting is: (dose: 100.0 mg/kg/injection, schedule: Q04DX003 (ip), vehicle: saline sonified) 104 % of control; (dose: 200.0 mg/kg/injection, schedule: Q04DX003 (ip), vehicle: saline sonified) 102 % of control; (dose: 400.0 mg/kg/injection, schedule: Q04DX003 (ip), vehicle: saline sonified) 101 % of control.
